In patent publication US10266544B2, “Aryl substituted aminomethyl spectinomycin analogs as antibacterial agents” (ST. JUDE CHILDREN'S RESEARCH HOSPITAL, INC., priority 2013, dated 2019):
In brackets after ≈: the same amount, converted by molar mass. Structures can show the parent of a compound that is named as a salt. Where two headings read alike, the source gives them in different places.

Columns and labels:
Assay type in all cases: cell-based
[1] = system: Bacillus anthracis, Sterne 34F2; experiment: microbe, parasite or virus in culture; settings: STERNE34F2, read-out: MIC B.a.
[2] = system: Bacillus subtilis (ATCC 23857); experiment: MIC determination, microbroth dilution; settings: ATCC23857; Bacillus subtilis (ATCC 23857); read-out: MIC B.s.
[3] = system: Staphylococcus aureus (ATCC 29213); experiment: MIC determination, microbroth dilution
[4] = system: MRSA, Staphylococcus aureus (NRS70); experiment: MIC determination, microbroth dilution; settings: read-out: MIC MRSA
[5] = system: Streptococcus pneumoniae (R6); experiment: MIC determination, microbroth dilution; settings: Streptococcus pneumoniae (R6); read-out: MIC S. pn.
[6] = system: Streptococcus pyogenes (ATCC 700294); experiment: MIC determination, microbroth dilution; settings: ATCC700294; Streptococcus pyogenes (ATCC 700294); read-out: MIC S. py.
[7] = system: acinetobacter baumannii (ATCC 19606); experiment: MIC determination, microbroth dilution; settings: ATCC19606
[8] = system: Burkholderia cepacia (ATCC 25416); experiment: MIC determination, microbroth dilution; settings: Burkholderia cepacia
[9] = system: Escherichia coli (ATCC 700926); experiment: MIC determination, microbroth dilution; settings: ATCC700926; Escherichia coli (ATCC 700926); read-out: MIC E.c.
Protocol: MICs were determined using the microbroth dilution method according to Clinical Laboratory Standards Institute (CLSI; National, C. F. C. L. S., Methods for Dilution Antimicrobial Susceptibility Tests for Bacteria Grow aerobically-Seventh Edition: Approved Standard M7-A7, CLSI, Wayne, Pa., USA, 2008) and were read by visual inspection. Two fold serial dilutions of antibiotic in 100 μL of the appropriate broth media were first prepared in 96-well round bottom microtiter plates (Nalge Nunc International, Rochester, N.Y., USA). An equivalent volume (100 μL) of bacterial broth inocula containing approximately 10^5 bacterial cfu/mL was added to each well to give final concentrations of drug starting at 200 μg/mL and the plates were incubated aerobically at 37° C. M. tuberculosis microtiter plates were incubated for 7 days and all other strains were incubated overnight. After incubations, in all cases the MIC was recorded as the lowest concentration of drug that prevented bacterial growth.

E. coli K12 ΔtolC = experiment: microbe, parasite or virus in culture; settings: Escherichia coli, read-out: MIC E.c. Δtolc
[10] = system: Klebsiella pneumoniae (ATCC 33495); experiment: MIC determination, microbroth dilution; settings: ATCC33495
[11] = system: Pseudomonas aeruginosa (PA01); experiment: MIC determination, microbroth dilution
[12] = system: Proteus mirabilis (ATCC 25933); experiment: MIC determination, microbroth dilution; settings: ATCC25933
[13] = system: Proteus vulgaris (ATCC 33420); experiment: MIC determination, microbroth dilution; settings: ATCC33420
[14] = system: Stenotrophomonas maltophilia (ATCC 13637); experiment: MIC determination, microbroth dilution; settings: ATCC13637; Stenotrophomonas maltophilia (ATCC 13637); read-out: MIC S.m.
[15] = system: Haemophilus influenza (ATCC 49247); experiment: microbe, parasite or virus in culture; settings: ATCC49247; Haemophilus influenza; 4 μg per disc; range of at least two experiments; read-out: Zone of inhibition H.i.
[16] = system: Legionella pneumophila (ATCC 33153); experiment: microbe, parasite or virus in culture; settings: ATCC33153, 72 h, read-out: Zone of inhibition L.p.
[17] = system: Neisseria gonorrhoeae (ATCC 49226); experiment: Disc diffusion assay; settings: ATCC49226, 4 μg per disc, read-out: Zone of inhibition N.g.
[18] = system: M. tuberculosis clinical isolates; experiment: microbe, parasite or virus in culture; settings: Mycobacterium tuberculosis
[19] = system: Enterococcus faecalis (ATCC 33186); experiment: MIC determination, microbroth dilution
Bacillus anthracis = experiment: microbe, parasite or virus in culture; settings: read-out: MIC B.a.
[20] = ATCC29213, Staphylococcus aureus (ATCC 29213), read-out: MIC S.a.
[21] = ATCC25416, read-out: MIC B.c., Burkholderia cepacia (ATCC 25416)
[22] = Staphylococcus aureus, ATCC29213, read-out: MIC S.a.
[23] = ATCC25416, read-out: MIC B.c., Burkholderia cepacia, Table 6
[24] = ATCC33186, Enterococcus faecalis (ATCC 33186), read-out: MIC E.f.

Row | SMILES | MIC [1] [µg/mL] | MIC [2] [µg/mL] | MIC [3, 20] [µg/mL] | MIC ([4]; Staphylococcus aureus (NRS70)) [µg/mL] | MIC [5] [µg/mL] | MIC [6] [µg/mL] | MIC [7] [µg/mL] | MIC [8, 21] [µg/mL] | MIC [9] [µg/mL] | MIC (E. coli K12 ΔtolC) [µg/mL] | MIC [10] [µg/mL] | MIC ([18]; H37RV, read-out: MIC H37Rv) [µg/mL] | MIC [19, 24] [µg/mL] | further results
1 | CN[C@@H]1[C@H](O)[C@H](NC)[C@H]2O[C@]3(O)[C@H](O[C@@H]2[C@H]1O)O[C@H](C)C[C@@]3(O)CNc1ccc(F)cc1 [compound 31, 3′-(R)-3′-[(4-fluoro)phenylaminomethyl)]dihydrospectinomycin Trihydrochloride] | 200 | 200 | 200 | > 200 | 12.5 to 25 | 12.5 to 25 | > 200 | > 200 | 100 to 200 | 50 to 100 | > 200 | 200 | – | MIC [11]: > 200 µg/mL; MIC [12]: > 200 µg/mL; MIC [13]: > 200 µg/mL; MIC [14]: 200 µg/mL; zone of inhibition at 4 µg/disc [15]: 6 mm; zone of inhibition at 4 µg/disc [16]: 0 mm; zone of inhibition at 4 µg/disc [17]: 12 mm
2 | CN[C@@H]1[C@H](O)[C@H](NC)[C@H]2O[C@]3(O)[C@H](O[C@@H]2[C@H]1O)O[C@H](C)C[C@@]3(O)CNCCc1ccc(C)cc1 [compound 32, 3′-(R)-3′-[(4-Methyl)]Phenethylaminomethyl)]Dihydrospectinomycin Trihydrochloride] | 12.5 | 3.1 to 6.3 | – | – | 6.3 | 3.1 to 6.3 | > 200 | > 200 | 100 to 200 | 50 to 100 | > 200 | 3.1 | – | MIC ([19]; Enterococcus faecalis, ATCC33186, read-out: MIC E.f.): 12.5 µg/mL; MIC [3, 22]: 12.5 µg/mL; MIC ([4]; Staphylococcus aureus): 12.5 to 25 µg/mL; MIC [8, 23]: ≥ 200 µg/mL; MIC [11]: ≥ 200 µg/mL; MIC [12]: > 200 µg/mL; MIC [13]: 100 µg/mL; MIC [14]: 6.3 µg/mL; MIC (Bacillus anthracis): 12.5 µg/mL; MIC ([18]; read-out: MIC TN022): 6.3 µg/mL; MIC ([18]; read-out: MIC TN026): 6.3 µg/mL
3 | CN[C@@H]1[C@H](O)[C@H](NC)[C@H]2O[C@]3(O)[C@H](O[C@@H]2[C@H]1O)O[C@H](C)C[C@@]3(O)CNCCc1ccc(F)cc1 [compound 33, 3′-(R)-3′-(4-FLUOROphenethylaminomethyl)dihydrospectinomycin Trihydrochloride] | 12.5 | 3.1 to 6.3 | – | 25 to 50 | – | – | > 200 | ≥ 200 | 12.5 | 6.3 | 200 | 3.1 | 25 | MIC [3, 22]: 12.5 to 25 µg/mL; MIC [8, 23]: > 200 µg/mL; MIC (Bacillus anthracis): 12.5 µg/mL; MIC ([18]; read-out: MIC TN022): 6.3 µg/mL; MIC ([18]; read-out: MIC TN026): 6.3 µg/mL
4 | CN[C@@H]1[C@H](O)[C@H](NC)C2O[C@]3(O)C(OC2[C@H]1O)O[C@H](C)C[C@@]3(O)CNCc1cn(C)c2ccccc12 (some centres unmarked) [compound 37] | > 200 | 12.5 (≈ 24.7 µM) | 50 (≈ 98.7 µM) | 200 (≈ 395 µM) | 25 (≈ 49.3 µM) | 12.5 (≈ 24.7 µM) | – | – | – | – | – | 50 (≈ 98.7 µM) | 50 (≈ 98.7 µM) | –
5 | CN[C@@H]1[C@H](O)[C@H](NC)C2O[C@]3(O)C(OC2[C@H]1O)O[C@H](C)C[C@@]3(O)CNCCCc1ccco1 (some centres unmarked) [compound 38] | > 200 | 6.25 (≈ 13.3 µM) | 50 (≈ 106 µM) | 100 (≈ 212 µM) | 12.5 (≈ 26.5 µM) | 25 (≈ 53 µM) | – | – | – | – | – | 6.3 (≈ 13.4 µM) | 50 (≈ 106 µM) | –
6 | CN[C@@H]1[C@H](O)[C@H](NC)C2O[C@]3(O)C(OC2[C@H]1O)O[C@H](C)C[C@@]3(O)CNCc1ccc2ccccc2c1 (some centres unmarked) [compound 39] | > 200 | 25 (≈ 49.6 µM) | 100 (≈ 199 µM) | 100 (≈ 199 µM) | 12.5 (≈ 24.8 µM) | 12.5 (≈ 24.8 µM) | – | – | – | – | – | 50 (≈ 99.3 µM) | 50 (≈ 99.3 µM) | –
7 | CN[C@@H]1[C@H](O)[C@H](NC)C2O[C@]3(O)C(OC2[C@H]1O)O[C@H](C)C[C@@]3(O)CNCc1ccc(-c2ccccc2)cc1 (some centres unmarked) [compound 40] | > 200 | 50 (≈ 94.4 µM) | 100 (≈ 189 µM) | 100 (≈ 189 µM) | 12.5 (≈ 23.6 µM) | 6.25 (≈ 11.8 µM) | – | – | – | – | – | 100 (≈ 189 µM) | 25 (≈ 47.2 µM) | –
8 | CN[C@@H]1[C@H](O)[C@H](NC)C2O[C@]3(O)C(OC2[C@H]1O)O[C@H](C)C[C@@]3(O)CNCc1cccc(C(=O)OC)c1 (some centres unmarked) [compound 41] | > 200 | 50 (≈ 97.7 µM) | 200 (≈ 391 µM) | 200 (≈ 391 µM) | 50 (≈ 97.7 µM) | 50 (≈ 97.7 µM) | – | – | – | – | – | 50 (≈ 97.7 µM) | 200 (≈ 391 µM) | –
